HELM strings list units from the 5' end as sugar, base in round brackets, then linkage (d deoxyribose, r ribose, m 2'-O-methyl, p phosphodiester). Strings are as the collection lists them; they lack the last nucleoside at the 3' end of the tested compound. [moe] = 2'-O-(2-methoxyethyl) (MOE); [sp] = phosphorothioate linkage; [m5C] = 5-methylcytosine
Molecular target: GFAP
Test: mouse, dose not given
Conditions: ASO

Substance | 3 h FOB score
RNA1{[moe](T)[sp].[moe](G)p.[moe](T)p.[moe](G)p.d(T)[sp].d(A)[sp].d(T)[sp].d(T)[sp].d(A)[sp].d(G)[sp].d(G)[sp].d(A)[sp].d(T)[sp].d([m5C])[sp].[moe]([m5C])p.[moe]([m5C])p.[moe](A)p.[moe](T)[sp].[moe]([m5C])}$$$$ (last 3' nucleoside missing) | 3 score 0-7
RNA1{[moe](A)[sp].[moe](G)p.[moe]([m5C])p.[moe]([m5C])p.[moe]([m5C])[sp].d([m5C])[sp].d(A)[sp].d([m5C])[sp].d([m5C])[sp].d(T)[sp].d(A)[sp].d(G)[sp].d(A)[sp].d(A)[sp].d(G)[sp].[moe](T)p.[moe](A)p.[moe]([m5C])[sp].[moe]([m5C])}$$$$ (last 3' nucleoside missing) | 2 score 0-7
RNA1{[moe](A)[sp].[moe](G)p.[moe](T)p.[moe](G)p.[moe](A)[sp].d([m5C])[sp].d([m5C])[sp].d(T)[sp].d(G)[sp].d(T)[sp].d(G)[sp].d(A)[sp].d([m5C])[sp].d(T)[sp].d(A)[sp].[moe](T)p.[moe]([m5C])p.[moe](T)[sp].[moe](A)}$$$$ (last 3' nucleoside missing) | 6 score 0-7
RNA1{[moe]([m5C])[sp].[moe](A)p.[moe](G)p.[moe]([m5C])p.[moe](A)[sp].d(T)[sp].d(T)[sp].d(T)[sp].d(G)[sp].d(T)[sp].d([m5C])[sp].d(T)[sp].d(T)[sp].[moe](T)p.[moe](A)p.[moe](T)[sp].[moe](T)}$$$$ (last 3' nucleoside missing) | 3 score 0-7
RNA1{[moe](G)[sp].[moe](A)p.[moe](T)p.[moe](T)p.[moe](T)[sp].d(T)[sp].d([m5C])[sp].d([m5C])[sp].d([m5C])[sp].d([m5C])[sp].d(G)[sp].d(T)[sp].d([m5C])[sp].d(T)[sp].d(T)[sp].[moe](T)p.[moe](G)p.[moe](G)[sp].[moe](T)}$$$$ (last 3' nucleoside missing) | 6 score 0-7
RNA1{[moe](A)[sp].[moe](T)p.[moe](T)p.[moe](T)p.d(G)[sp].d(T)[sp].d([m5C])[sp].d(T)[sp].d(T)[sp].d(T)[sp].d(A)[sp].d(T)[sp].d(T)[sp].d(T)[sp].[moe](T)p.[moe](T)p.[moe]([m5C])p.[moe]([m5C])[sp].[moe](T)}$$$$ (last 3' nucleoside missing) | 0 score 0-7
RNA1{[moe]([m5C])[sp].[moe](T)p.[moe](T)p.[moe](T)p.d(T)[sp].d(G)[sp].d(A)[sp].d(G)[sp].d(A)[sp].d(T)[sp].d(A)[sp].d(T)[sp].d([m5C])[sp].d(T)[sp].[moe](T)p.[moe](G)p.[moe](T)p.[moe](G)[sp].[moe](A)}$$$$ (last 3' nucleoside missing) | 1 score 0-7
RNA1{[moe]([m5C])[sp].[moe](A)p.[moe](G)p.[moe]([m5C])p.[moe](A)[sp].d(G)[sp].d(T)[sp].d(G)[sp].d([m5C])[sp].d([m5C])[sp].d([m5C])[sp].d(T)[sp].d(G)[sp].d(A)[sp].d(A)[sp].[moe](G)p.[moe](A)p.[moe](T)[sp].[moe](T)}$$$$ (last 3' nucleoside missing) | 1 score 0-7
RNA1{[moe](T)[sp].[moe]([m5C])p.[moe](A)p.[moe](G)p.[moe]([m5C])p.d([m5C])[sp].d(T)[sp].d(G)[sp].d(G)[sp].d(T)[sp].d(T)[sp].d(A)[sp].d(G)[sp].d([m5C])[sp].d([m5C])[sp].[moe](T)p.[moe](T)p.[moe](T)[sp].[moe]([m5C])}$$$$ (last 3' nucleoside missing) | 4 score 0-7
RNA1{[moe](T)[sp].[moe](T)p.[moe](G)p.[moe](T)p.[moe]([m5C])[sp].d(T)[sp].d(T)[sp].d(T)[sp].d(A)[sp].d(T)[sp].d(T)[sp].d(T)[sp].d(T)[sp].d(T)[sp].d([m5C])[sp].[moe]([m5C])p.[moe](T)p.[moe]([m5C])[sp].[moe](A)}$$$$ (last 3' nucleoside missing) | 1 score 0-7
RNA1{[moe](G)[sp].[moe]([m5C])p.[moe](T)p.[moe]([m5C])p.[moe]([m5C])[sp].d([m5C])[sp].d(A)[sp].d([m5C])[sp].d(A)[sp].d([m5C])[sp].d(T)[sp].d(A)[sp].d([m5C])[sp].d(A)[sp].d(T)[sp].[moe](A)p.[moe](T)p.[moe](A)[sp].[moe](A)}$$$$ (last 3' nucleoside missing) | 2 score 0-7
RNA1{[moe](G)[sp].[moe]([m5C])p.[moe](T)p.[moe](T)p.[moe](T)[sp].d(T)[sp].d(G)[sp].d(A)[sp].d(G)[sp].d(A)[sp].d(T)[sp].d(A)[sp].d(T)[sp].[moe]([m5C])p.[moe](T)p.[moe](T)[sp].[moe](G)}$$$$ (last 3' nucleoside missing) | 3 score 0-7
RNA1{[moe](A)[sp].[moe]([m5C])p.[moe](T)p.[moe](A)p.[moe](G)p.[moe](T)p.d([m5C])[sp].d(A)[sp].d(G)[sp].d([m5C])[sp].d([m5C])[sp].d(T)[sp].d(G)[sp].d(G)[sp].d(T)[sp].d(T)[sp].[moe](A)p.[moe](G)[sp].[moe]([m5C])}$$$$ (last 3' nucleoside missing) | 4 score 0-7
RNA1{[moe]([m5C])[sp].[moe](T)p.[moe](T)p.[moe](T)p.[moe](A)[sp].d(T)[sp].d(T)[sp].d(T)[sp].d(T)[sp].d(T)[sp].d([m5C])[sp].d([m5C])[sp].d(T)[sp].[moe]([m5C])p.[moe](A)p.[moe](G)[sp].[moe]([m5C])}$$$$ (last 3' nucleoside missing) | 4 score 0-7
RNA1{[moe]([m5C])[sp].[moe](G)p.[moe](T)p.[moe]([m5C])p.d(A)[sp].d([m5C])[sp].d(A)[sp].d(T)[sp].d(T)[sp].d([m5C])[sp].d(A)[sp].d([m5C])[sp].d(T)[sp].d(A)[sp].[moe](A)p.[moe](T)p.[moe](A)p.[moe](T)[sp].[moe](T)}$$$$ (last 3' nucleoside missing) | 0 score 0-7
RNA1{[moe]([m5C])[sp].[moe]([m5C])p.[moe](T)p.[moe](T)p.[moe](G)p.d(T)[sp].d(G)[sp].d(A)[sp].d(T)[sp].d(T)[sp].d(T)[sp].d(T)[sp].d([m5C])[sp].d([m5C])[sp].d([m5C])[sp].[moe]([m5C])p.[moe](G)p.[moe](T)[sp].[moe]([m5C])}$$$$ (last 3' nucleoside missing) | 0 score 0-7
RNA1{[moe](G)[sp].[moe](T)p.[moe]([m5C])p.[moe](T)p.[moe](T)[sp].d(T)[sp].d(A)[sp].d(T)[sp].d(T)[sp].d(T)[sp].d(T)[sp].d(T)[sp].d([m5C])[sp].[moe]([m5C])p.[moe](T)p.[moe]([m5C])[sp].[moe](A)}$$$$ (last 3' nucleoside missing) | 4 score 0-7
RNA1{[moe](A)[sp].[moe](T)p.[moe](T)p.[moe]([m5C])p.[moe](A)[sp].d([m5C])[sp].d(T)[sp].d(A)[sp].d(A)[sp].d(T)[sp].d(A)[sp].d(T)[sp].d(T)[sp].[moe](T)p.[moe](A)p.[moe](A)[sp].[moe]([m5C])}$$$$ (last 3' nucleoside missing) | 0 score 0-7
RNA1{[moe]([m5C])[sp].[moe](A)p.[moe](G)p.[moe](G)p.[moe](G)[sp].d([m5C])[sp].d(T)[sp].d(A)[sp].d([m5C])[sp].d([m5C])[sp].d(T)[sp].d(T)[sp].d(G)[sp].d(T)[sp].d([m5C])[sp].[moe](T)p.[moe](G)p.[moe](T)[sp].[moe](G)}$$$$ (last 3' nucleoside missing) | 6 score 0-7
RNA1{[moe](G)[sp].[moe](G)p.[moe](A)p.[moe](T)p.[moe]([m5C])[sp].d(T)[sp].d([m5C])[sp].d([m5C])[sp].d(T)[sp].d([m5C])[sp].d([m5C])[sp].d(T)[sp].d([m5C])[sp].d([m5C])[sp].d(A)[sp].[moe](G)p.[moe]([m5C])p.[moe](G)[sp].[moe](A)}$$$$ (last 3' nucleoside missing) | 0 score 0-7
RNA1{[moe](G)[sp].[moe]([m5C])p.[moe]([m5C])p.[moe](A)p.[moe](T)[sp].d(T)[sp].d(T)[sp].d(A)[sp].d(T)[sp].d([m5C])[sp].d(T)[sp].d(G)[sp].d(T)[sp].[moe](G)p.[moe]([m5C])p.[moe](T)[sp].[moe](T)}$$$$ (last 3' nucleoside missing) | 1 score 0-7
RNA1{[moe](T)[sp].[moe](T)p.[moe](G)p.[moe](T)p.d([m5C])[sp].d(T)[sp].d(T)[sp].d(T)[sp].d(A)[sp].d(T)[sp].d(T)[sp].d(T)[sp].d(T)[sp].d(T)[sp].[moe]([m5C])p.[moe]([m5C])p.[moe](T)p.[moe]([m5C])[sp].[moe](A)}$$$$ (last 3' nucleoside missing) | 2 score 0-7
RNA1{[moe](T)[sp].[moe]([m5C])p.[moe](T)p.[moe](T)p.[moe](T)p.[moe](A)p.d(T)[sp].d(T)[sp].d(T)[sp].d(T)[sp].d(T)[sp].d([m5C])[sp].d([m5C])[sp].d(T)[sp].d([m5C])[sp].d(A)[sp].[moe](G)p.[moe]([m5C])[sp].[moe](G)}$$$$ (last 3' nucleoside missing) | 0 score 0-7
RNA1{[moe](T)[sp].[moe](T)p.[moe](T)p.[moe](A)p.[moe](T)[sp].d(T)[sp].d(T)[sp].d(T)[sp].d(T)[sp].d([m5C])[sp].d([m5C])[sp].d(T)[sp].d([m5C])[sp].d(A)[sp].d(G)[sp].[moe]([m5C])p.[moe](G)p.[moe](A)[sp].[moe]([m5C])}$$$$ (last 3' nucleoside missing) | 2 score 0-7
RNA1{[moe](A)[sp].[moe]([m5C])p.[moe](A)p.[moe](T)p.d(T)[sp].d([m5C])[sp].d(A)[sp].d([m5C])[sp].d(T)[sp].d(A)[sp].d(A)[sp].d(T)[sp].d(A)[sp].d(T)[sp].[moe](T)p.[moe](T)p.[moe](A)p.[moe](A)[sp].[moe]([m5C])}$$$$ (last 3' nucleoside missing) | 0 score 0-7
RNA1{[moe](G)[sp].[moe](T)p.[moe](A)p.[moe](T)p.[moe](T)[sp].d(A)[sp].d(G)[sp].d(G)[sp].d(A)[sp].d(T)[sp].d([m5C])[sp].d([m5C])[sp].d([m5C])[sp].[moe](A)p.[moe](T)p.[moe]([m5C])[sp].[moe](T)}$$$$ (last 3' nucleoside missing) | 2 score 0-7

Source: the OligoGym collection
